# Columns and labels:
# [1] = system: primary human fibroblasts derived from IPF patients (LL29 cells); assay: Inhibition of fibrosis (αSMA) in TGF-β1 treated primary human fibroblasts from IPF patients; type: cell-based; details: Fibroblast, 96 h, TGF-β1 20 ng/mL, 4 days, % αSMA positive cells
# Excerpt: The above synthesized compounds were screened using primary human fibroblasts (derived from IPF patients) treated with TGF-β1 to determine their ability to inhibit the fibrotic process.
# Primary human fibroblasts derived from IPF patients (LL29 cells) [^1Xiaoqiu Liu, et.al., “Fibrotic Lung Fibroblasts Show Blunted Inhibition by cAMP Due to Deficient cAMP Response Element-Binding Protein Phosphorylation”, Journal of Pharmacology and Experimental Therapeutics (2005), 315(2), 678-687; ^2Watts, K. L., et.al., “RhoA signaling modulates cyclin D1 expression in human lung fibroblasts; implications for idiopathic pulmonary fibrosis”, Respiratory Research (2006), 7(1), 88] were obtained from American Type Culture Collection (ATCC) and expanded in F12 medium supplemented with 15% Fetal Bovine Serum and Penicillin/Streptomycin.
# Each compound was dissolved in DMSO as a 10 mM stock and used to prepare compound source plates. Serial dilution (1:2, 11-point dose-response curves from 10 μM to 1.87 nM) and compound transfer was performed using the ECHO 550 (Labcyte, Sunnyvale, Calif.) into 384-well clear bottom assay plates (Greiner Bio-One) with appropriate DMSO backfill for a final DMSO concentration of 0.1%. LL29 cells were plated at 1,500 cells/well in 80 μl/well F12 medium supplemented with 1% Fetal Bovine Serum. One hour after addition of the cells, TGF-β1 (Peprotech; 20 ng/mL) was added to the plates to induce fibrosis (ref. 1 and 2 above). Wells treated with TGF-β1 and containing DMSO were used as controls. Cells were incubated at 37° C. and 5% CO2 for 4 days. Following incubation for 4 days, SYTOX green nucleic acid stain (Life Technologies [Thermo Fisher Scientific]) was added to the wells at a final concentration of 1 uM and incubated at room temperature for 30 min. Cells were then fixed using 4% formaldehyde (Electron Microscopy Sciences), washed 3 times with PBS followed by blocking and permeabilization using 3% Bovine Serum Albumin (BSA; Sigma) and 0.3% Triton X-100 (Sigma) in PBS. Cells were then stained with antibody specific to α-smooth muscle actin (αSMA; Abcam) (ref. 1 and 2 above) in 3% Bovine Serum Albumin (BSA; Sigma) and 0.3% Triton X-100 (Sigma) in PBS, and incubated overnight at 4° C. Cells were then washed 3 times with PBS, followed by incubation with Alexa Flor-647 conjugated secondary antibody (Life Technologies [Thermo Fisher Scientific]) and DAPI at room temperature for 1 hour. Cells were then washed 3 times with PBS and plates were sealed for imaging. αSMA staining was imaged by excitation at 630 nm and emission at 665 nm and quantified using the Compartmental Analysis program on the CellInsight CX5 (Thermo Scientific). Dead or apoptotic cells were excluded from analysis based on positive SYTOX green staining. % of total cells positive for αSMA were counted in each well and normalized to the average of 11 wells treated with TGF-β1 on the same plate using Dotmatics' Studies Software. The normalized averages (fold change over untreated) of 3 replicate wells for each compound concentration were used to create dose-responses curves and EC50 values were calculated using non-linear regression curve fit in the Dotmatics' Studies Software. The EC50 values are reported.
# [2] = system: Wnt activity (SW480 colon carcinoma cells stably expressing the Sp5-Luc reporter gene); assay: Sp5-Luc reporter gene screening assay for Wnt activity in SW480 cells; type: cell-based; details: Homo sapiens, 42 h incubation, luminescence
# Method in brief: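 SW480 cells stably carrying an Sp5 promoter (eight TCF/LEF sites)-luciferase reporter were plated overnight in 10% FCS medium. BrightGlo luminescence was normalised to DMSO wells, and IC50 was obtained by four-parameter fit.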
SMILES,EC50 [1] [nM],IC50 [2] [nM]
"NC1CN(c2cncc(-c3ccc4[nH]nc(-c5nc6c(-c7cccc(F)c7)ccnc6[nH]5)c4c3)n2)C1 [Compound 1878, 1-(6-(3-(7-(3-Fluorophenyl)-3H-imidazo[4,5-b]pyridin-2-yl)-1H-indazol-5-yl)pyrazin-2-yl)azetidin-3-amine]",9.99,215
"Fc1ccc(-c2ccnc3[nH]c(-c4n[nH]c5ccc(-c6cncc(CN7CCCC7)c6)cc45)nc23)s1 [Compound 352, 7-(5-Fluorothiophen-2-yl)-2-(5-(5-(pyrrolidin-1-ylmethyl)pyridin-3-yl)-1H-indazol-3-yl)-3H-imidazo[4,5-b]pyridine]",0.125,13.2
"Fc1cccc(-c2ccnc3[nH]c(-c4n[nH]c5ccc(-c6cncc(OC7CCCCC7)c6)cc45)nc23)c1 [Compound 1879, 2-(5-(5-(Cyclohexyloxy)pyridin-3-yl)-1H-indazol-3-yl)-7-(3-fluorophenyl)-3H-imidazo[4,5-b]pyridine]",9.99,> 10000
"CC(C)C(=O)Nc1cncc(-c2ccc3[nH]nc(-c4nc5c(-c6ccccc6F)ccnc5[nH]4)c3c2)c1 [Compound 61, N-(5-(3-(7-(2-Fluorophenyl)-3H-imidazo[4,5-b]pyridin-2-yl)-1H-indazol-5-yl)pyridin-3-yl)isobutyramide]",0.009,6
"CN(C)Cc1cncc(-c2ccc3[nH]nc(-c4nc5c(-c6cccs6)ccnc5[nH]4)c3c2)c1 [Compound 325, N,N-Dimethyl-1-(5-(3-(7-(thiophen-2-yl)-3H-imidazo[4,5-b]pyridin-2-yl)-1H-indazol-5-yl)pyridin-3-yl)methanamine]",0.04,932
"O=C(Nc1cncc(-c2ccc3[nH]nc(-c4nc5c(-c6ccc(F)cc6)ccnc5[nH]4)c3c2)c1)C1CCC1 [Compound 46, N-(5-(3-(7-(4-Fluorophenyl)-3H-imidazo[4,5-b]pyridin-2-yl)-1H-indazol-5-yl)pyridin-3-yl)cyclobutanecarboxamide]",0.08,2
"O=C(Nc1cncc(-c2ccc3[nH]nc(-c4nc5c(-c6cccs6)ccnc5[nH]4)c3c2)c1)C1CCCC1 [Compound 333, N-(5-(3-(7-(Thiophen-2-yl)-3H-imidazo[4,5-b]pyridin-2-yl)-1H-indazol-5-yl)pyridin-3-yl)cyclopentanecarboxamide]",0.009,6.3
"c1cncc(-c2ccnc3[nH]c(-c4n[nH]c5ccc(-c6cncc(CN7CCCCC7)c6)cc45)nc23)c1 [Compound 93, 2-(5-(5-(Piperidin-1-ylmethyl)pyridin-3-yl)-1H-indazol-3-yl)-7-(pyridin-3-yl)-3H-imidazo[4,5-b]pyridine]",0.016,> 10000
"c1ccc(CNCc2cncc(-c3ccc4[nH]nc(-c5nc6c(-c7ccsc7)ccnc6[nH]5)c4c3)c2)cc1 [Compound 283, N-Benzyl-1-(5-(3-(7-(thiophen-3-yl)-3H-imidazo[4,5-b]pyridin-2-yl)-1H-indazol-5-yl)pyridin-3-yl)methanamine]",0.605,137
"Cc1ccncc1-c1ccc2[nH]nc(-c3nc4cccnc4[nH]3)c2c1 [Compound 239, 2-(5-(4-Methylpyridin-3-yl)-1H-indazol-3-yl)-3H-imidazo[4,5-b]pyridine]",0.171,4100
"Cc1ccc(-c2ccnc3[nH]c(-c4n[nH]c5ccc(-c6cncc(NC(=O)C7CCCC7)c6)cc45)nc23)s1 [Compound 385, N-(5-(3-(7-(5-Methylthiophen-2-yl)-3H-imidazo[4,5-b]pyridin-2-yl)-1H-indazol-5-yl)pyridin-3-yl)cyclopentanecarboxamide]",0.084,19.2
"CCC(=O)Nc1cncc(-c2ccc3[nH]nc(-c4nc5c(N6CCCCC6)ccnc5[nH]4)c3c2)c1 [Compound 157, N-(5-(3-(7-(Piperidin-1-yl)-3H-imidazo[4,5-b]pyridin-2-yl)-1H-indazol-5-yl)pyridin-3-yl)propionamide]",0.605,15
"O=C(Nc1cncc(-c2ccc3[nH]nc(-c4nc5c(-c6cccc(F)c6)ccnc5[nH]4)c3c2)c1)C1CCCC1 [Compound 21, N-(5-(3-(7-(3-Fluorophenyl)-3H-imidazo[4,5-b]pyridin-2-yl)-1H-indazol-5-yl)pyridin-3-yl)cyclopentanecarboxamide]",0.027,9.1
"CN1CCN(c2ccnc3[nH]c(-c4n[nH]c5ccc(-c6cncnc6)cc45)nc23)CC1 [Compound 234, 7-(4-Methylpiperazin-1-yl)-2-(5-(pyrimidin-5-yl)-1H-indazol-3-yl)-3H-imidazo[4,5-b]pyridine]",0.434,795
"O=C(Nc1cncc(-c2ccc3[nH]nc(-c4nc5c(-c6ccsc6)ccnc5[nH]4)c3c2)c1)C1CC1 [Compound 279, N-(5-(3-(7-(Thiophen-3-yl)-3H-imidazo[4,5-b]pyridin-2-yl)-1H-indazol-5-yl)pyridin-3-yl)cyclopropanecarboxamide]",0.306,5.2
"CN(C)Cc1cncc(-c2ccc3[nH]nc(-c4nc5cccnc5[nH]4)c3c2)c1 [Compound 247, 1-(5-(3-(3H-Imidazo[4,5-b]pyridin-2-yl)-1H-indazol-5-yl)pyridin-3-yl)-N,N-dimethylmethanamine]",0.184,77
"Cc1ccc(-c2ccnc3[nH]c(-c4n[nH]c5ccc(-c6cncc(N)c6)cc45)nc23)s1 [Compound 367, 5-(3-(7-(5-Methylthiophen-2-yl)-3H-imidazo[4,5-b]pyridin-2-yl)-1H-indazol-5-yl)pyridin-3-amine]",0.314,4.3
"O=C(Cc1ccccc1)Nc1cncc(-c2ccc3[nH]nc(-c4nc5c(-c6ccsc6)ccnc5[nH]4)c3c2)c1 [Compound 270, 2-Phenyl-N-(5-(3-(7-(thiophen-3-yl)-3H-imidazo[4,5-b]pyridin-2-yl)-1H-indazol-5-yl)pyridin-3-yl)acetamide]",0.01,16.3
"FC1(F)CCN(Cc2cncc(-c3ccc4[nH]nc(-c5nc6c(N7CCCCC7)ccnc6[nH]5)c4c3)c2)C1 [Compound 181, 2-(5-(5-((3,3-Difluoropyrrolidin-1-yl)methyl)pyridin-3-yl)-1H-indazol-3-yl)-7-(piperidin-1-yl)-3H-imidazo[4,5-b]pyridine]",0.009,2580
"O=C(Nc1cncc(-c2ccc3[nH]nc(-c4nc5cccnc5[nH]4)c3c2)c1)C1CCCCC1 [Compound 256, N-(5-(3-(3H-Imidazo[4,5-b]pyridin-2-yl)-1H-indazol-5-yl)pyridin-3-yl)cyclohexanecarboxamide]",0.401,66.3
"O=C(Nc1cncc(-c2ccc3[nH]nc(-c4nc5c(-c6cccc(F)c6)ccnc5[nH]4)c3c2)c1)C1CC1 [Compound 19, N-(5-(3-(7-(3-Fluorophenyl)-3H-imidazo[4,5-b]pyridin-2-yl)-1H-indazol-5-yl)pyridin-3-yl)cyclopropanecarboxamide]",0.043,1
"Cn1cc(-c2ccc3[nH]nc(-c4nc5c(-c6cccc(F)c6)ccnc5[nH]4)c3c2)cn1 [Compound 1876, 7-(3-Fluorophenyl)-2-(5-(1-methyl-1H-pyrazol-4-yl)-1H-indazol-3-yl)-3H-imidazo[4,5-b]pyridine]",9.99,61
"O=C(Nc1cncc(-c2ccc3[nH]nc(-c4nc5c(-c6cccs6)ccnc5[nH]4)c3c2)c1)C1CC1 [Compound 331, N-(5-(3-(7-(Thiophen-2-yl)-3H-imidazo[4,5-b]pyridin-2-yl)-1H-indazol-5-yl)pyridin-3-yl)cyclopropanecarboxamide]",0.155,34.7

# Reference: patent US10280166B2, “2-(1H-indazol-3-yl)-3H-imidazo[4,5-B]pyridine and therapeutic uses thereof” (Samumed, LLC, priority 2014, dated 2019)
